This is an account of results in US5235045A, “Non-azo naphthalimide dyes” (priority 1992, dated 1993).

Each structure is given as a SMILES string.

The subject of the experiment is BHV-1 antigen. Kind of experiment: Surface antigen assays of BHV-1 on FBL cells. Format: cell-based, Bovine Herpes Virus Type I (BHV-1). As for the experimental part:
Surface Antigen Assays The BHV-1 virus prepared as above (20480 TCID50) was (i) held as control; (ii) treated with dye (concentrations from 7.5 to 250 ng/ml) in cell culture medium; or (iii) treated with Compound VII and light-treated in cell culture medium. All virus was plated in 96-well flat bottom plates for 24 hours in 5x replicates on FBL cells. At that time the wells were examined for CPE, scored, and 2x wells were fixed in acetone and paraformaldehyde for examination of intracellular and surface BHV-1 antigen, respectively. The cells were treated with 50 μl of an anti-BHV-1 monoclonal antibody (gift of Dr. J. Collins, Diagnostic Laboratory, Colorado State University, School of Veterinary Medicine) used as a common diagnostic reagent, for 30 minutes at room temperature. The cells were further stained with either FITC-labeled anti-mouse or biotinylated anti-mouse and avidin rPE. The samples were placed on slides and read by fluorescent microscopy using a 495 nm excitor filter and 525 long pass emission filter on a Leitz epifluorescent microscope.

[1] abbreviates: photochemically attenuated virus.
The mark [2] stands for this setting: virus and dye, dark control, 7.5 to 250 ng/ml.

In the case of `CCCCCCNc1c(Br)cc2c3c(cccc13)C(=O)N(CCCCCC)C2=O` [Compound VII, 3-bromo-4-(hexyl)amino-N-hexyl-1,8-naphthalimide], under setting [1], the internal viral antigen result is “internal antigen was observed at all concentrations of Compound VII which showed CPE” and the surface viral antigen result is recorded as “Surface antigen was observed at all concentrations”. For the same compound, under setting [2], the internal viral antigen result was “Internal antigen was observed and correlated with CPE levels”; the surface viral antigen result is listed as “Much surface viral antigen was detected at all dye concentrations”.
